The source made the active and inactive calls. No cut-off for these calls is given here.

Data set [1] can be described thus: Toxicity in female Kunming mouse assessed as effect on T-CHO level in serum at 100 to 500 mg/kg/day, po measured after 5 weeks. The format is organism-based. To be noted: in vivo, 840 h, dose 100-500 mg/kg/day.
Data set [2] in a line: Metabolic stability in human plasma assessed as half life at pH 7.4 measured upto 60 mins by HPLC-MS analysis. Format: ADME, cell-free.
The nature of data set [3]: Toxicity in female Kunming mouse assessed as effect on spleen at 100 to 500 mg/kg/day, po measured after 5 weeks by H and E staining based analysis. The format is organism-based. To be noted: in vivo, 840 h, dose 100-500 mg/kg/day.
The nature of data set [4]: Toxicity in male Kunming mouse assessed as effect on BUN level in serum at 100 to 500 mg/kg/day, po measured after 5 weeks. To be noted: in vivo, 840 h, dose 100-500 mg/kg/day. The format is organism-based.
A short description of data set [5]: Toxicity in female Kunming mouse assessed as change in food intake at 100 to 500 mg/kg/day, po measured after 5 weeks. Format: organism-based. The settings on record: in vivo, 840 h, dose 100-500 mg/kg/day.
A short description of data set [6]: Toxicity in female Kunming mouse assessed as effect on GGT level in serum at 100 to 500 mg/kg/day, po measured after 5 weeks. Format: organism-based. To be noted: in vivo, 840 h, dose 100-500 mg/kg/day.
For data set [7], the system named is Mus musculus. As to the kind of experiment: Antiinflammatory activity in DSS-induced male C57BL/6 mouse model of inflammatory bowel disease assessed as amelioration of infiltration of inflammatory cells at 50 to 100 microM/Kg by H and E staining based analysis. Format: functional, organism-based. The settings on record: dose 50-100 µM/Kg.
Data set [8] can be described thus: Toxicity in female Kunming mouse assessed as effect on kidney to body weight ratio at 100 to 500 mg/kg/day, po measured after 5 weeks. Format: organism-based. To be noted: in vivo, 840 h, dose 100-500 mg/kg/day.
A short description of data set [9]: Toxicity in male Kunming mouse assessed as effect on TP level in serum at 100 to 500 mg/kg/day, po measured after 5 weeks. Format: organism-based. To be noted: in vivo, 840 h, dose 100-500 mg/kg/day.
Data set [10] in a line: Toxicity in female Kunming mouse assessed as effect on liver to body weight ratio at 100 to 500 mg/kg/day, po measured after 5 weeks. The format is organism-based. The settings on record: in vivo, 840 h, dose 100-500 mg/kg/day.
A short description of data set [11]: Toxicity in male Kunming mouse assessed as effect on lung at 100 to 500 mg/kg/day, po measured after 5 weeks by H and E staining based analysis. Format: organism-based. To be noted: in vivo, 840 h, dose 100-500 mg/kg/day.
Data set [12] in a line: Toxicity in male Kunming mouse assessed as effect on heart at 100 to 500 mg/kg/day, po measured after 5 weeks by H and E staining based analysis. The format is organism-based. The settings on record: in vivo, 840 h, dose 100-500 mg/kg/day.
Data set [13] in a line: Toxicity in male Kunming mouse assessed as effect on liver to body weight ratio at 100 to 500 mg/kg/day, po measured after 5 weeks. Format: organism-based. The settings on record: in vivo, 840 h, dose 100-500 mg/kg/day.
A short description of data set [14]: Toxicity in female Kunming mouse assessed as effect on ALP level in serum at 100 to 500 mg/kg/day, po measured after 5 weeks. To be noted: in vivo, 840 h, dose 100-500 mg/kg/day. The format is organism-based.
Data set [15] deals with Mus musculus. Briefly: Antiinflammatory activity in DSS-induced male C57BL/6 mouse model of inflammatory bowel disease assessed as inhibition of MPO expression at 50 to 100 microM/Kg, po by immunohistochemical analysis. The format is functional, organism-based. The settings on record: dose 50-100 µM/Kg.
Data set [16] relates to Mus musculus. Briefly: Antiinflammatory activity in DSS-induced male C57BL/6 mouse model assessed as inhibition of IL-6 level in colon at 50 to 100 microM/Kg. Format: functional, organism-based. To be noted: dose 50-100 µM/Kg.
In data set [17] the test system is Mus musculus. As to the kind of experiment: Antiinflammatory activity in DSS-induced male C57BL/6 mouse model assessed as effect on JNK phosphorylation level at 50 to 100 microM/Kg by Western blot analysis. Format: functional, organism-based. The settings on record: dose 50-100 µM/Kg.
The nature of data set [18]: Toxicity in male Kunming mouse assessed as effect on CK level in serum at 100 to 500 mg/kg/day, po measured after 5 weeks. The format is organism-based. The settings on record: in vivo, 840 h, dose 100-500 mg/kg/day.
A short description of data set [19]: Metabolic stability in dog plasma assessed as half life at pH 7.4 measured upto 60 mins by HPLC-MS analysis. Format: ADME, cell-free, Canis lupus familiaris.
A short description of data set [20]: Toxicity in female Kunming mouse assessed as effect on GLU level in serum at 100 to 500 mg/kg/day, po measured after 5 weeks. The format is organism-based. To be noted: in vivo, 840 h, dose 100-500 mg/kg/day.
A short description of data set [21]: Acute toxicity in female Kunming mouse assessed as effect on lung 5 g/Kg, po measured after 5 weeks. Format: organism-based. The settings on record: in vivo, 5000 mg/kg, 840 h.
Data set [22] is described as follows: Toxicity in female Kunming mouse assessed as effect on TG level in serum at 100 to 500 mg/kg/day, po measured after 5 weeks. The format is organism-based. The settings on record: in vivo, 840 h, dose 100-500 mg/kg/day.
The nature of data set [23]: Toxicity in female Kunming mouse assessed as effect on AST level in serum at 100 to 500 mg/kg/day, po measured after 5 weeks. The format is organism-based. To be noted: in vivo, 840 h, dose 100-500 mg/kg/day.
A short description of data set [24]: Toxicity in female Kunming mouse assessed as effect on lung to body weight ratio at 100 to 500 mg/kg/day, po measured after 5 weeks. The format is organism-based. To be noted: in vivo, 840 h, dose 100-500 mg/kg/day.
Data set [25] can be described thus: Toxicity in male Kunming mouse assessed as effect on ALT level in serum at 100 to 500 mg/kg/day, po measured after 5 weeks. The format is organism-based. To be noted: in vivo, 840 h, dose 100-500 mg/kg/day.
Data set [26] relates to Mus musculus. As to the kind of experiment: Antiinflammatory activity in DSS-induced male C57BL/6 mouse model assessed as increase in IL-10 level in colon at 50 to 100 microM/Kg. Format: functional, organism-based. The settings on record: dose 50-100 µM/Kg.
Data set [27] relates to Mus musculus. Briefly: Antiinflammatory activity in male C57BL/6 mouse model of inflammatory bowel disease assessed as recovery of DSS-induced body weight loss at 40 mg/kg/day, po via gavage measured after 14 days relative to control. The format is functional. The settings on record: time 14 day.
Data set [28] has as its system Mus musculus. Briefly: Antiinflammatory activity in DSS-induced male C57BL/6 mouse model of inflammatory bowel disease assessed as increase in colon length at 20 mg/kg/day, ip measured after 14 days relative to control. Format: functional. To be noted: time 14 day.
The test system of data set [29] is Mus musculus. As to the kind of experiment: Antiinflammatory activity in DSS-induced male C57BL/6 mouse model of inflammatory bowel disease assessed as amelioration of structural loss of colon at 50 to 200 microM/Kg by H and E staining based analysis. Format: functional, organism-based. The settings on record: dose 50-200 µM/Kg.
The species entered for data set [30] is Mus musculus. As to the kind of experiment: Antiinflammatory activity in DSS-induced male C57BL/6 mouse model of inflammatory bowel disease assessed as reduction in JNK level. Format: functional, organism-based.
The species named for data set [31] is Mus musculus. As to the kind of experiment: Antiinflammatory activity in DSS-induced male C57BL/6 mouse model of inflammatory bowel disease assessed as reduction in MYD88 level. Format: functional, organism-based.
In data set [32] the test system is Mus musculus. As to the kind of experiment: Antiinflammatory activity in DSS-induced male C57BL/6 mouse model of inflammatory bowel disease assessed as recovery from body weight loss at 20 mg/kg/day, ip measured after 14 days relative to control. The format is functional. To be noted: time 14 day.
In data set [33] the test system is Mus musculus. As to the kind of experiment: Antiinflammatory activity in DSS-induced male C57BL/6 mouse model of inflammatory bowel disease assessed as increase in colon length at 10 mg/kg/day, ip measured after 14 days relative to control. The format is functional. The settings on record: time 14 day.
Data set [34] relates to Mus musculus. Briefly: Antiinflammatory activity in DSS-induced male C57BL/6 mouse model of inflammatory bowel disease assessed as amelioration of infiltration of inflammatory cells at 50 to 200 microM/Kg by H and E staining based analysis. The format is functional, organism-based. The settings on record: dose 50-200 µM/Kg.
Data set [35] has as its system Mus musculus. Briefly: Antiinflammatory activity in DSS-induced male C57BL/6 mouse model of inflammatory bowel disease assessed as decrease in p38 phosphorylation level at 50 to 200 microM/Kg by Western blot analysis. The format is functional, organism-based. To be noted: dose 50-200 µM/Kg.
For data set [36], the system named is Mus musculus. Briefly: Antiinflammatory activity in DSS-induced male C57BL/6 mouse model of inflammatory bowel disease assessed as increase in colon length at 60 mg/kg/day, po via gavage measured upto 14 days relative to control. The format is functional. The settings on record: time <= 14 day.
Data set [37] concerns Mus musculus. As to the kind of experiment: Antiinflammatory activity in DSS-induced male C57BL/6 mouse model of inflammatory bowel disease assessed as recovery from body weight loss at 10 mg/kg/day, ip measured after 14 days relative to control. The format is functional. The settings on record: time 14 day.

Consider `CC(=O)OC[C@H]1O[C@@H](OC2=C(C)OC(=C(C)C)C2=O)[C@H](OC(C)=O)[C@@H](OC(C)=O)[C@@H]1OC(C)=O`, for which the Activity result in [1], in [3], in [4], in data set [5], in [6] and in [8] was “Non-toxic” each time. The Activity result in data set [9], in data set [10], in data set [11], in data set [12], in [13] and in data set [14] was “Non-toxic” each time. In addition, the Activity entry in data set [18], in data set [20], in [21], in data set [22], in [23] and in data set [24] was “Non-toxic” each time. Moreover, the Activity result is “Non-toxic” in [25] and 49.1% in the data set on Mus musculus [27]. In addition, the figures for the half-life in data set [2] and in data set [19] were 27.7 min and 32.5 min, respectively. Further, the outcome with Mus musculus [7], with Mus musculus [15], in the data set on Mus musculus [16] and with Mus musculus [26] was Active. For the same compound, in the data set on Mus musculus [17], the result was inactive.
With `CC(C)=C1OC(C)=C(O[C@@H]2O[C@H](CO)[C@@H](O)[C@H](O)[C@H]2O)C1=O`, the Activity in the data set on Mus musculus [28] was determined as 47.4%; in the data set with Mus musculus [32], 50%; in the data set on Mus musculus [33], 20.4%; with Mus musculus [36], 73.4%; in the data set with Mus musculus [37], 37.5%. Further, the result in the data set with Mus musculus [29], in the data set listed under Mus musculus [30], in the data set filed under Mus musculus [31], in the data set on Mus musculus [34] and with Mus musculus [35] was Active.

The values are drawn from ChEMBL document CHEMBL6120946, “From Hit to Lead: Discovery of First-In-Class Furanone Glycoside D228 Derived from Chimonanthus salicifolius for the Treatment of Inflammatory Bowel Disease” (J Med Chem, 2024).
